Measured values published in ChEMBL document CHEMBL3525899, “Identification of the cytochrome P450 and other enzymes involved in the in vitro oxidative metabolism of a novel antidepressant, Lu AA21004” (Drug Metab Dispos, 2012).

Experiments:
[1] = biological target: T1, Flavin-containing monooxygenase 3 (Homo sapiens, UniProt P31513); test: Activity of human recombinant FMO3 expressed in microsomes isolated from baculovirus infected insect BTI-TN-5B1-4 cells assessed as enzyme-mediated 3-methyl-4-(2-(piperazin-1-yl)phenylthio)benzoic acid formation at 8 to 50 uM after 120 mins by HPLC/MS-MS analysis in presence of NADPH regenerating system with NADP+; format: ADME; details: 2 h
T1 sequence (P31513 whole entry): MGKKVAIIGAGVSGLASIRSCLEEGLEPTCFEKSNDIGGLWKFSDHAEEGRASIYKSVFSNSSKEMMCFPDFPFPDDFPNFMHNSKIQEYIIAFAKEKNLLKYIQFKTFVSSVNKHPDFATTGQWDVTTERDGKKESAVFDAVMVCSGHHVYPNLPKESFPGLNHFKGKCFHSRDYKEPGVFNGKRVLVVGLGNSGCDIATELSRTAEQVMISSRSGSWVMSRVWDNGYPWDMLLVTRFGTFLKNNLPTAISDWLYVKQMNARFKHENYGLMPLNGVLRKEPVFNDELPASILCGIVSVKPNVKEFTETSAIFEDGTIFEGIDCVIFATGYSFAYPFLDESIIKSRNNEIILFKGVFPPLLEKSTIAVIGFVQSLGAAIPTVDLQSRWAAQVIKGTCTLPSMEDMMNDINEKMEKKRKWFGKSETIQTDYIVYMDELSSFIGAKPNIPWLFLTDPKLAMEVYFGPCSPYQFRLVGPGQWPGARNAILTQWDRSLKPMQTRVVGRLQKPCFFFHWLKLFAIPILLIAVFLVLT

Cytochrome P450 2A6 = biological target: T2, Cytochrome P450 2A6 (Homo sapiens, UniProt P11509); test: Activity of human recombinant CYP2A6 expressed in microsomes isolated from human AHH-1 cells assessed as enzyme-mediated 3-(2,4-dimethylphenylthio)-4-(piperazin-1-yl)phenol formation at 8 to 50 uM after 120 mins by HPLC/MS-MS analysis in presence of NADPH regenerating system with NADP+; format: ADME, cell-free; details: 2 h
T2 sequence (P11509 whole entry): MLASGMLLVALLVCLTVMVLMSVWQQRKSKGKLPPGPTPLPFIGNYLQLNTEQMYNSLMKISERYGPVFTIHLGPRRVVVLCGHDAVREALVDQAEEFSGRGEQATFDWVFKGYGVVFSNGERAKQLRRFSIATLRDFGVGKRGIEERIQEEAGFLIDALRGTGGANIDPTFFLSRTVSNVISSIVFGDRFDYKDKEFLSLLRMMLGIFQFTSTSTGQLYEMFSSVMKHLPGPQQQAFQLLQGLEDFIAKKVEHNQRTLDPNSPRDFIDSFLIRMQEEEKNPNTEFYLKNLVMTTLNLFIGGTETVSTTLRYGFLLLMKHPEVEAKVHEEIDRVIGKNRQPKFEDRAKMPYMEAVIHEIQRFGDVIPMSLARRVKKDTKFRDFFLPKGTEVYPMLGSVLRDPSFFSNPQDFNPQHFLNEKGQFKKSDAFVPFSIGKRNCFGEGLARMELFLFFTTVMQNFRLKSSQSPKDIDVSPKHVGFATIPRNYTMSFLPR

Cytochrome P450 2B6 = biological target: T3, Cytochrome P450 2B6 (Homo sapiens, UniProt P20813); test: Activity of human recombinant CYP2B6 expressed in microsomes isolated from human AHH-1 cells assessed as enzyme-mediated 1-(2-(2,4-dimethylphenylsulfinyl)phenyl)piperazine formation at 8 to 50 uM after 120 mins by HPLC/MS-MS analysis in presence of NADPH regenerating system with NADP+; format: ADME, cell-free; details: 2 h
T3 sequence (P20813 whole entry): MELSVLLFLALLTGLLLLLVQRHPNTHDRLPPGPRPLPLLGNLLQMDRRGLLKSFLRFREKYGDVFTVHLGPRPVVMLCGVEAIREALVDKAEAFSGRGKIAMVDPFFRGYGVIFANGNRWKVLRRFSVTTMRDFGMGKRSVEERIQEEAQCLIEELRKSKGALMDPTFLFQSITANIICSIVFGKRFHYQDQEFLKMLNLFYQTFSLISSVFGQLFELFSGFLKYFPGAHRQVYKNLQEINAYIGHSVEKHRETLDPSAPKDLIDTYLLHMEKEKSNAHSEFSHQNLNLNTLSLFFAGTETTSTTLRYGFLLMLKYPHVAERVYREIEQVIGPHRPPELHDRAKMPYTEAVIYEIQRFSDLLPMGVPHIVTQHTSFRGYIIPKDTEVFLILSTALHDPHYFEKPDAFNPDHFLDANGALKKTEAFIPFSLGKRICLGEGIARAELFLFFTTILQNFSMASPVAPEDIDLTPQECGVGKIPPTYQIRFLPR

Liver microsome [2] = test: Drug metabolism in pooled human liver microsomes assessed as formation of 3-methyl-4-(2-(piperazin-1-yl)phenylthio)benzoic acid at 100 uM after 30 to 180 mins by HPLC/MS-MS analysis in presence of NADPH regenerating system with NADP+; format: ADME
Cytochrome P450 2D6 = Cytochrome P450 2D6 (Homo sapiens, UniProt P10635); test: Activity of human recombinant CYP2D6 expressed in microsomes isolated from human AHH-1 cells assessed as enzyme-mediated (3-methyl-4-(2-(piperazin-1-yl)phenylthio)phenyl)methanol formation at 8 to 50 uM after 120 mins by HPLC/MS-MS analysis in presence of NADPH regenerating system with NADP+; format: ADME, cell-free; details: 2 h
Chain of Cytochrome P450 2D6 (P10635 whole entry): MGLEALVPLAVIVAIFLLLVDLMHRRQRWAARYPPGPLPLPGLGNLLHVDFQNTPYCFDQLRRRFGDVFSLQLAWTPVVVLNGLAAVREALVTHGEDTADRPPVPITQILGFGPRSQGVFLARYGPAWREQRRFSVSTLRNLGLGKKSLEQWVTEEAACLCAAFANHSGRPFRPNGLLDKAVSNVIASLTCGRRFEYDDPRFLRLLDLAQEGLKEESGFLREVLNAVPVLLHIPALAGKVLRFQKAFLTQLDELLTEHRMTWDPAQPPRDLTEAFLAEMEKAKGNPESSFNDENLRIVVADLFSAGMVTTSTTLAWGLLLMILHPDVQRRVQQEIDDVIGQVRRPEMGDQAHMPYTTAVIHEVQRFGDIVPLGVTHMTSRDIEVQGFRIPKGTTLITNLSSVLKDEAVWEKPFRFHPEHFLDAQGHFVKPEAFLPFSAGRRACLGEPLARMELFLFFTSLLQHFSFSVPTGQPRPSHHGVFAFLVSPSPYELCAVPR

Liver microsome [3] = test: Drug metabolism in pooled human liver microsomes assessed as formation of (3-methyl-4-(2-(piperazin-1-yl)phenylthio)phenyl)methanol after 30 mins by Michaelis-Menten plot analysis in presence of NADPH regenerating system with NADP+; format: ADME; details: 0.5 h, read-out: Km(app)
Cytochrome P450 3A4 = Cytochrome P450 3A4 (Homo sapiens, UniProt P08684); test: Activity of human recombinant CYP3A4 expressed in microsomes isolated from human AHH-1 cells assessed as enzyme-mediated 1-(2-(2,4-dimethylphenylsulfinyl)phenyl)piperazine formation at 8 to 50 uM after 120 mins by HPLC/MS-MS analysis in presence of NADPH regenerating system with NADP+; format: ADME, cell-free; details: 2 h
Chain of Cytochrome P450 3A4 (P08684 whole entry): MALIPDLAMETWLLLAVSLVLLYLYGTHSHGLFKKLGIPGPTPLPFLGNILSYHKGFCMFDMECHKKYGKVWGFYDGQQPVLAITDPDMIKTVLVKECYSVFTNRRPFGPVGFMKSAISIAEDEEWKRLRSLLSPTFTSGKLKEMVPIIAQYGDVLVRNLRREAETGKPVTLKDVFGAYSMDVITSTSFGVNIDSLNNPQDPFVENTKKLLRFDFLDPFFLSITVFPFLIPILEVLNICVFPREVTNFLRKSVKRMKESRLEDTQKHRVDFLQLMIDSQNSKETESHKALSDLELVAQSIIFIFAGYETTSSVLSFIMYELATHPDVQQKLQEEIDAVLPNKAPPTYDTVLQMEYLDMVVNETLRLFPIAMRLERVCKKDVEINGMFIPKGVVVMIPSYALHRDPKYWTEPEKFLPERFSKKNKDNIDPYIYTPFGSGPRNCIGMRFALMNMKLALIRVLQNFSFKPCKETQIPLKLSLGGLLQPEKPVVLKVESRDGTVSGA

Liver microsome [4] = test: Drug metabolism in pooled human liver microsomes assessed as formation of (3-methyl-4-(2-(piperazin-1-yl)phenylthio)phenyl)methanol per mg of protein after 30 mins by Michaelis-Menten plot analysis in presence of NADPH regenerating system with NADP+; format: ADME; details: 0.5 h
Liver microsome [5] = test: Drug metabolism in phenotyped human liver microsomes assessed as formation of 1-(2-(2,4-dimethylphenylsulfinyl)phenyl)piperazine at 8 to 50 uM after 60 mins by HPLC/MS-MS analysis in presence of NADPH regenerating system with NADP+; format: ADME; details: 1 h
Liver microsome [6] = test: Drug metabolism in pooled human liver microsomes at 100 uM after 30 to 180 mins by HPLC/MS-MS analysis in presence of NADPH regenerating system without NADP+; format: ADME
Liver microsome [7] = test: Drug metabolism in pooled human liver microsomes assessed as formation of 3-(2,4-dimethylphenylthio)-4-(piperazin-1-yl)phenol at 100 uM after 30 to 180 mins by HPLC/MS-MS analysis in presence of NADPH regenerating system with NADP+; format: ADME
Cytochrome P450 2C19 = Cytochrome P450 2C19 (Homo sapiens, UniProt P33261); test: Activity of human recombinant CYP2C19 expressed in microsomes isolated from human AHH-1 cells assessed as enzyme-mediated (3-methyl-4-(2-(piperazin-1-yl)phenylthio)phenyl)methanol formation at 8 to 50 uM after 120 mins by HPLC/MS-MS analysis in presence of NADPH regenerating system with NADP+; format: ADME, cell-free; details: 2 h
Chain of Cytochrome P450 2C19 (P33261 whole entry): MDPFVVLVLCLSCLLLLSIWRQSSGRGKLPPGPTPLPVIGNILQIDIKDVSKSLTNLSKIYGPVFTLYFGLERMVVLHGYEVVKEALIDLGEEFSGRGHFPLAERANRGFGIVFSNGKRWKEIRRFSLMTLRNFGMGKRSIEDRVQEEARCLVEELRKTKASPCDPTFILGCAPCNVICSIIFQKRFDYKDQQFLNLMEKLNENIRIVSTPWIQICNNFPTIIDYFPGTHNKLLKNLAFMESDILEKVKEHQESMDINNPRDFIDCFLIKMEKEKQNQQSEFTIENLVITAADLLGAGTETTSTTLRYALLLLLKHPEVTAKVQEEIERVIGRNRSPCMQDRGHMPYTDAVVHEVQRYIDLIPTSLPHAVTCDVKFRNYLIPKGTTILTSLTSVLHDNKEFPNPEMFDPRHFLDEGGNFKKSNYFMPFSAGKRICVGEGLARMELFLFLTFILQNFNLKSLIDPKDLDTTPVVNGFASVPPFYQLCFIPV

Br.Cc1ccc(Sc2ccccc2N2CCNCC2)c(C)c1 [VORTIOXETINE HYDROBROMIDE]
metabolite_detected: Drug metabolism (Liver microsome [2]) | Drug metabolism (Cytochrome P450 2D6) | Drug metabolism (Cytochrome P450 3A4) | Drug metabolism (Liver microsome [5]) | Drug metabolism (Liver microsome [7]) | Drug metabolism (Cytochrome P450 2C19)
231 µM: Km (Liver microsome [3])
262 pmol/min: Vmax(app) (Liver microsome [4])
metabolite_not_detected: Drug metabolism [1] | Drug metabolism (Cytochrome P450 2A6) | Drug metabolism (Cytochrome P450 2B6) | Drug metabolism (Liver microsome [6])
